Experimental data as given in ChEMBL document CHEMBL6115023, “Design and biochemical evaluation of 2-cyclopropyl-thioureidobenzamide (CP-TBA) derivatives as potent HBV capsid assembly modulators targeting a novel binding site” (Eur J Med Chem, 2025).
Activity calls are given as the source filed them. No cut-off for these calls is given here.

What was measured:
Hepatitis B virus [1] = experiment: Antiviral activity against HBV gene expressed in human HePAD38 cells assessed as inhibition of HBV DNA replication by quantitative PCR analysis; type: functional, organism-based
[2] = Cytotoxicity against human HepAD38 cells measured after 72 hrs by CCK-8 assay; type: toxicity, cell-based
[3] = Selectivity index, ratio of CC50 for human HepAD38 cells to IC50 for antiviral activity against HBV gene expressed in human HepAD38 cells assessed as inhibition of HBV DNA replication; type: toxicity, cell-based; conditions: read-out: Selectivity Index
[4] = Lipophilic-hydrophilic partition coefficient logP of compound; type: physicochemical; conditions: octanol/water
[5] = Metabolic stability in human liver microsomes assessed as compound remaining after 60 mins in absence of NADPH (NCF) by LC-MS/MS analysis; type: ADME, Microsome; conditions: read-out: Stability
[6] = Clearance in Sprague-Dawley rat at 2 mg/kg, iv measured upto 24 hrs by LC-MS/MS analysis; type: ADME, organism-based; conditions: in vivo
[7] = MRT (0 to t) in Sprague-Dawley rat at 2 mg/kg, iv measured upto 24 hrs by LC-MS/MS analysis; type: ADME, organism-based; conditions: in vivo
[8] = Metabolic stability in human liver microsomes assessed as intrinsic clearance measured per mg of microsomal protein upto 60 mins by LC-MS/MS analysis; type: ADME, Microsome; conditions: read-out: CLH
[9] = AUC (0 to infinity) in Sprague-Dawley rat at 20 mg/kg, po measured upto 24 hrs by LC-MS/MS analysis; type: ADME, organism-based; conditions: in vivo
[10] = Stability in human plasma assessed as half life by LC-MS/MS analysis; type: ADME, cell-free
[11] = Metabolic stability in human liver microsomes assessed as half life by LC-MS/MS analysis; type: ADME, Microsome
[12] = Stability in human plasma assessed as compound remaining measured after 60 mins by LC-MS/MS analysis; type: ADME, cell-free; conditions: read-out: Stability
[13] = Stability in human plasma assessed as compound remaining measured after 120 mins by LC-MS/MS analysis; type: ADME, cell-free; conditions: read-out: Stability
[14] = MRT (0 to t) in Sprague-Dawley rat at 20 mg/kg, po measured upto 24 hrs by LC-MS/MS analysis; type: ADME, organism-based; conditions: in vivo
[15] = Tmax in Sprague-Dawley rat at 20 mg/kg, po measured upto 24 hrs by LC-MS/MS analysis; type: ADME, organism-based; conditions: in vivo
Hepatitis B virus [16] = experiment: Antiviral activity against HBV infected in human HLCZ01 cells assessed as inhibition of HBV replication by measuring HBV DNA treated for 6 days by qPCR analysis; type: functional, organism-based; conditions: HLCZ01, 144 h
[17] = Volume of distribution at steady state in Sprague-Dawley rat at 2 mg/kg, iv measured upto 24 hrs by LC-MS/MS analysis; type: ADME, organism-based; conditions: in vivo, read-out: Vdss
[18] = Stability in human plasma assessed as compound remaining measured immediately by LC-MS/MS analysis; type: ADME, cell-free; conditions: read-out: Stability
[19] = MRT (0 to infinity) in Sprague-Dawley rat at 2 mg/kg, iv measured upto 24 hrs by LC-MS/MS analysis; type: ADME, organism-based; conditions: in vivo
[20] = Cytotoxicity against human HLCZ01 cells assessed as cell viability measured after 72 hrs by CCK-8 assay; type: toxicity, cell-based
[21] = Metabolic stability in human liver microsomes assessed as compound remaining after 60 mins in presence of NADPH by LC-MS/MS analysis; type: ADME, Microsome; conditions: read-out: Stability
[22] = AUC (0 to infinitive) in Sprague-Dawley rat at 2 mg/kg, iv measured upto 24 hrs by LC-MS/MS analysis; type: ADME, organism-based; conditions: in vivo
[23] = Oral bioavailability in Sprague-Dawley rat at 2 mg/kg, iv measured upto 24 hrs by LC-MS/MS analysis; type: ADME, organism-based; conditions: in vivo
[24] = AUC (0 to t) in Sprague-Dawley rat at 20 mg/kg, po measured upto 24 hrs by LC-MS/MS analysis; type: ADME, organism-based; conditions: in vivo
[25] = Metabolic stability in human liver microsomes assessed as intrinsic clearance (liver) upto 60 mins by LC-MS/MS analysis; type: ADME, Microsome; conditions: read-out: CLH
[26] = Half life in Sprague-Dawley rat at 2 mg/kg, iv measured upto 24 hrs by LC-MS/MS analysis; type: ADME, organism-based; conditions: in vivo
[27] = Stability in human plasma assessed as compound remaining measured after 10 mins by LC-MS/MS analysis; type: ADME, cell-free; conditions: read-out: Stability
Hepatitis B virus [28] = experiment: In vivo antiviral activity against HBV infected male C57BL/6J mouse by hydrodynamic injection (HDI) of pAAV-HBV1.2 assessed as decrease in HBV DNA in serum at 5 mg/kg/day, po measured after 20 days by qPCR analysis; type: functional, organism-based; conditions: time 20.0 day
[29] = Selectivity index, ratio of CC50 for human HLCZ01 cells to IC50 for antiviral activity against HBV infected in human HLCZ01 cells assessed as inhibition of HBV replication by measuring HBV DNA treated for 6 days by qPCR analysis; type: toxicity, cell-based; conditions: time 6 day, read-out: Selectivity Index
Hepatitis B virus [30] = experiment: Antiviral activity against HBV infected in human HLCZ01 cells assessed as inhibition of HBV replication by measuring HBsAg treated for 6 days by ELISA; type: functional, organism-based; conditions: time 6.0 day
[31] = Cmax in Sprague-Dawley rat at 20 mg/kg, po measured upto 24 hrs by LC-MS/MS analysis; type: ADME, organism-based; conditions: in vivo
[32] = Stability in human plasma assessed as compound remaining measured after 30 mins by LC-MS/MS analysis; type: ADME, cell-free; conditions: read-out: Stability
[33] = Half life in Sprague-Dawley rat at 20 mg/kg, po measured upto 24 hrs by LC-MS/MS analysis; type: ADME, organism-based; conditions: in vivo
[34] = AUC (0 to t) in Sprague-Dawley rat at 2 mg/kg, iv measured upto 24 hrs by LC-MS/MS analysis; type: ADME, organism-based; conditions: in vivo
[35] = MRT (0 to infinity) in Sprague-Dawley rat at 20 mg/kg, po measured upto 24 hrs by LC-MS/MS analysis; type: ADME, organism-based; conditions: in vivo

For `O=C(Nc1cc(F)c(F)c(F)c1)c1cc(NC(=O)C2CC2)c(F)cc1C1CC1`, the EC50 (Hepatitis B virus [1]) was 1.48 µM, the CC50 at 72 h [2] was 88.2 µM and the selectivity ratio [3] was 59.6.
In the case of `O=C(Nc1cc(F)c(F)c(F)c1)c1ccc(F)c(S(=O)(=O)N2CCC(O)CC2)c1`, the selectivity ratio [3] is reported as 47.6.
With `O=C(Nc1cc(C(=O)Nc2cc(F)c(F)c(F)c2)c(C2CC2)cc1F)c1cccs1` the EC50 (Hepatitis B virus [1]) was 0.5 µM, the CC50 at 72 h [2] was 20.9 µM and the selectivity ratio [3] was 41.8.
Compound `O=C(Nc1cc(F)c(F)c(F)c1)c1cc(S(=O)(=O)NC2CCCC2)c(F)cc1-c1cccs1` has an EC50 (Hepatitis B virus [1]) of 4 µM, a CC50 at 72 h [2] of 15 µM and a selectivity ratio [3] of 3.75.
In the case of `CCNC(=S)Nc1cc(C(=O)Nc2cc(F)c(F)c(F)c2)c(C2CC2)cc1F`, the EC50 (Hepatitis B virus [1]) is reported as 0.091 µM, the CC50 at 72 h [2] is reported as 21.2 µM and the selectivity ratio [3] is reported as 233.
`CC(NC(=S)Nc1cc(C(=O)Nc2cc(F)c(F)c(F)c2)c(C2CC2)cc1F)C(F)(F)F` (stereo unspecified) showed an EC50 (Hepatitis B virus [1]) of 0.029 µM, a CC50 at 72 h [2] of 3.86 µM and a selectivity ratio [3] of 133.
`O=C(Nc1cc(F)c(F)c(F)c1)c1cc(S(=O)(=O)NC2CCCC2)c(F)cc1-c1ccsc1` gave an EC50 (Hepatitis B virus [1]) greater than 4 µM, a CC50 at 72 h [2] of 1.16 µM and a selectivity ratio [3] of less than 0.29.
With `CC(C)N(C)C(=S)Nc1cc(C(=O)Nc2cc(F)c(F)c(F)c2)c(C2CC2)cc1F` the logP [4] was greater than 5, the remaining at 1 h [5] was 99% and the clearance [6] was 1.69 L/h/kg. It also gave an MRT last at 24 h [7] of 1.09 h, a microsomal CLint [8] of 113 µL/min/mg and an AUC(0-inf) [9] of 3.45 µg·h/mL. The half-life [10] was greater than 4.82 h, the half-life [11] was 0.205 h and the remaining at 1 h [12] was 87.6%. It also gave an EC50 (Hepatitis B virus [1]) of 0.033 µM, a CC50 at 72 h [2] greater than 100 µM and a remaining at 2 h [13] of 82.3%. The MRT last at 24 h [14] was 4.35 h, the Tmax [15] was 0.67 h and the EC50 (Hepatitis B virus [16]) was 0.012 µM. For the same compound, the Vd [17] was 2.1 L/kg, the remaining at 0 min [18] was 100% and the MRT inf [19] was 1.24 h. It also gave a CC50 at 72 h [20] of 119 µM, a remaining at 1 h [21] of 3.2% and an AUC(0-inf) [22] of 1.2 µg·h/mL. For the same compound, the bioavailability [23] was 28.9%, the AUC(0-t) at 24 h [24] was 3.44 µg·h/mL and the CLint scaled [25] was 6.1 L/h/kg. The selectivity ratio [3] was greater than 3030, the half-life [26] was 1.62 h and the remaining at 10 min [27] was 97.5%. The Activity (Hepatitis B virus [28]) was “Active”, the selectivity ratio at 144 h [29] was 9920 and the Activity (Hepatitis B virus [30]) was “Active”. For the same compound, the Cmax [31] was 0.748 µg/mL, the remaining at 0.5 h [32] was 91.6% and the half-life [33] was 2.87 h. For the same compound, the AUC(0-t) at 24 h [34] was 1.18 µg·h/mL and the MRT inf [35] was 4.42 h.
With `COC(=O)/C=C/c1c(S(=O)(=O)N2CCOCC2)ccc(F)c1C(=O)Nc1cc(F)c(F)c(F)c1` the EC50 (Hepatitis B virus [1]) was greater than 4 µM and the CC50 at 72 h [2] was greater than 100 µM.
With `O=C(Nc1cc(F)c(F)c(F)c1)c1cc(S(=O)(=O)NC2CCCC2)c(F)cc1C1CC1` the EC50 (Hepatitis B virus [1]) was 0.65 µM, the CC50 at 72 h [2] was 34 µM and the selectivity ratio [3] was 52.3.
Compound `O=C(O)Cc1ccccc1Nc1c(Cl)cccc1Cl` [DICLOFENAC] has a microsomal CLint [8] of 211 µL/min/mg, a half-life [11] of 0.11 h and a CLint scaled [25] of 11.4 L/h/kg.
Work on `CCOC(=O)C1=C(CN2CCOCC2)NC(c2nccs2)=N[C@H]1c1ccc(F)cc1Br` yielded an EC50 (Hepatitis B virus [1]) of 0.022 µM.
Compound `O=C(Nc1cc(F)c(F)c(F)c1)c1cc(S(=O)(=O)NC2CCC(O)CC2)c(F)cc1-c1ccc2c(c1)OCO2` (stereo unspecified) has an EC50 (Hepatitis B virus [1]) greater than 4 µM, a CC50 at 72 h [2] of 82.4 µM and a selectivity ratio [3] of less than 20.6.
